Results taken from patent publication US20250188078A1, “SMALL MOLECULE INHIBITORS OF THE CRL4 UBIQUITIN LIGASE” (Cornell University, priority 2022, published 2025).
Read-outs that look alike come from different tables or passages of the source.

Key:
[1] = Dynamic light scattering (DLS) solubility assay; type: physicochemical; settings: normalized intensity ratio of 25 μM compound vs DMSO, in PBS
How it was run: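 Compounds diluted from DMSO into PBS at final concentrations of 200 μM to 0.78 μM, in triplicate, and aggregation measured by light scattering intensity. A ratio above 2 scores insoluble (−), below 2 soluble (+), and around 2 (+/−).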

[2] = test system: CUL4A^high MDA-MB-468 breast cancer cells; experiment: Cell killing in CUL4-high MDA-MB-468 cells (CellTiter Glo); type: cell-based; settings: Homo sapiens, 8 days treatment
How it was run: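 Cells seeded, treated after 24 h with DMSO or compound (0 to 20 μM). Medium and compound replaced every 48 h over 8 days. Viability measured by CellTiter-Glo luminescence; EC50 (50% killing) from log(inhibitor) vs response nonlinear fit.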

[3] = test system: CUL4A^high xenograft and PDX tumors; experiment: CUL4A^high xenograft and PDX tumor growth; type: in vivo, mouse; settings: 50 mg/kg intraperitoneal; breast cancer xenograft and colorectal cancer PDX models, FIGS. 8A-8C
Description: Measurements were performed according to the following procedure. Mouse body weights were monitored using a scale. Tumors were assessed and volumes measured with fine calipers twice a week. The tumor volumes were calculated with the formula: Volume=(Length×Width^2)/2. Compound PA99 was administered via intraperitoneal doses in an amount of 50 mg/kg every X days, where X is the number of days shown in FIGS. 8A-8C.

[4] = test system: CUL4A^high MDA-MB-468 and CUL4^low (T47D) cells; experiment: Selective killing of CUL4A^high tumors (MDA-MB-468 vs T47D, Cell Titer Glo); type: cell-based; settings: FIG. 10, 8 days treatment
Description: CUL4A^high MDA-MB-468 breast cancer cells and CUL4^low (T47D) cells were seeded in 96 well plates. After 24 hours, cells were treated with DMSO or compound PA99. After 8 days treatment, cell viability was examined by using CellTiter Glo kit (Promega #7570) following the manufacturer's guidelines. EC50 concentration was calculated by Prism 8 XY analysis nonlinear regression (curve fit-Log(inhibitor) vs response). Lower EC50 indicates high cell killing potential in CUL4^high MDA-MB-468 cells.

[5] = test system: MCF7 breast cancer cells; experiment: Cell killing in MCF7 cells (CellTiter Glo); type: cell-based; settings: Homo sapiens, MCF7, 192 h; Table 3, 0 to 20 μM compound, 8 days treatment
Description: CUL4A^high MDA-MB-468, CUL4^low (T47D), and MCF7 breast cancer cells were seeded in 96 well plates separately. Cells were treated with DMSO, or from 0 to 20 μM compound respectively. Replace with fresh medium and compounds every 48 hours. After 8 days treatment, cell viability was examined by CellTiter Glo kit (Promega #7570). First, transfer the appropriate volume (10 ml for Cat. #G7570) of CellTiter-Glo® Buffer into the amber bottle containing CellTiter-Glo® Substrate to reconstitute the lyophilized enzyme/substrate mixture. This forms the CellTiter-Glo® Reagent. Second, add CellTiter-Glo® Reagent in an equal volume (100 μl per well for 96-well plates) to all wells. Mix contents for 2 minutes on an orbital shaker to induce cell lysis. Incubate at room temperature for 15 minutes to stabilize luminescent signal. Then record luminescence. EC50 concentration was calculated by Prism 8 XY analysis nonlinear regression (curve fit-Log(inhibitor) vs response).

[6] = target: DDB1-BPB (Homo sapiens (Human), UniProt Q16531); experiment: Surface Plasmon Resonance (SPR) binding to DDB1-BPB; settings: DDB1-BPB immobilized
Excerpt: Kd represents dissociation constant, which measures the affinity of small molecule binding to the scaffold DDB1-BPB by Surface Plasmon Resonance (SPR) (https://www.bio-rad.com/webroot/web/pdf/lsr/literature/Bulletin_6414.pdf, hereby incorporated by reference in its entirety) (see Table 1, column 8). To assess the interaction between DDB1-BPB and compounds, a multi-parametric SPR instrument (BioRad ProteON XPR360) was used. DDB1-BPB was immobilized onto the GLH sensor surface in a variety of ways as follows: flow channels were activated in parallel with 1/20 diluted EDC/SNHS. DDB1-BPB was diluted to 0.1 mg/mL in sodium acetate pH 4.5 and directly coupled onto channel for 4 min. Excess reactive esters were blocked with a 5-min injection of 1 M ethanolamine. Mean immobilization levels were 17,000 RU with <2% variation along a strip. One channel was left unmodified to provide an additional reference surface. Next, the binding kinetics of compounds on surfaces was determined in a single injection using a “one-shot” kinetic mode. Typically, compound was prepared as a twofold serial dilution (0, 3.125, 6.25, 12.5, 25, 50 μM) and injected for 60 s at […]. Dissociation was monitored for 800 s. Surfaces were regenerated with multiple 30-s pulses of 60 mM phosphoric acid so that the experiment could be reproduced. All resulting sensor grams were collected and analyzed using the ProteOn manager software.

[7] = 192 h, MDA-MB-468 cells, read-out: EC50 CUL4-High Cells (cell killing)

DDB1-BPB, sequence (Q16531 403-706): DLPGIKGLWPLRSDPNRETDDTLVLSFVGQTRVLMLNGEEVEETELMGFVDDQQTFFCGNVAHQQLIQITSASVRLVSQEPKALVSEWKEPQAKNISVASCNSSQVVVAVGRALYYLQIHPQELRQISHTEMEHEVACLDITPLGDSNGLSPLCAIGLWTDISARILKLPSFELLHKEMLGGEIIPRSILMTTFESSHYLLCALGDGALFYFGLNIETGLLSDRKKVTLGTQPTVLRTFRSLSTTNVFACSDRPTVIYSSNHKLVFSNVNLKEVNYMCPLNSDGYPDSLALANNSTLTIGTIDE

Structure (SMILES): CN(c1ccc(-c2nc(C(=O)O)cc3c2[nH]c2ccc(F)cc23)cc1)S(=O)(=O)c1ccccc1 [PA93]
- Solubility (DLS Assay) [1]: -(insoluble)
- EC50 [2, 7]: 11.1 µM

Structure (SMILES): CN(c1ccc(-c2nc(C(=O)O)cc3c2[nH]c2cccc(F)c23)cc1)S(=O)(=O)c1ccccc1 [PA99, 5-fluoro-1-(4-(N-methylphenylsulfonamido)phenyl)-9H-pyrido[3,4-b]indole-3-carboxylic acid]
- Tumor growth [3]: suppression
- Killing of CUL4A^high tumors [4]: selective killing
- EC50 [5]: 19.5 µM
- Kd [6]: 2.13 µM
- EC50 [2, 7]: 1.18 µM
- EC50 ([2]; MDA-MB-468, 192 h, Table 3, 0 to 20 μM compound, read-out: EC50 OF cell killing, MDA-MB-468): 1.18 µM
